Experimental findings from paper PMC9968138, “Design, Synthesis, and Biological Evaluation of a Small-Molecule PET Agent for Imaging PD-L1 Expression” (Pharmaceuticals, 2023) are described below.

Series [1] in a line: MTT cell viability assay, PD-L1- cells. The class given is cell-based. The following applies: human, A375 cells (human melanoma, PD-L1 negative), LP-F 0-100 μM. As to the method:
(§1) Human melanoma cell line A375 (PD-L1^-) and human PD-L1 gene-transfected A375 cells (A375-hPD-L1, PD-L1^+) were cultured according to previous work.
(§2) Each well was seeded with 1 × 10^4 cancer cells in 96-well plates. LP-F dissolved in DMEM with gradient concentration (0, 12.5, 25, 50 and 100 μM) was added to each well at triple parallels, respectively, and incubated for 24 h. Then, MTT (5 mg/mL, 20 μL/well) was added and incubated for 4 h. 150 μL DMSO was added each well and shaken vigorously for 10 min to dissolve MTT crystallization. The absorbance of each sample was detected at 490 nm by ELISA, and percent cell viability was calculated based on Eq.: Percentage = sample well/reference well × 100%

The nature of series [2]: MTT cell viability assay, PD-L1+ cells. The class given is cell-based. The following applies: human, A375-hPD-L1 cells (PD-L1-transfected human melanoma A375), LP-F 0-100 μM. As to the method: as §1, §2
A short description of series [3]: In vitro stability assay in mouse serum (radio-HPLC). The series is classed as in vitro ADME. The following applies: 37 °C, 4 h. As to the method:
(§3) In order to investigate the in vitro stability of the radioactive probe, [^18F]LP-F (~14.8 MBq, 40 μL) was incubated in PBS (pH 7.4, 360 μL) at 37 °C for 4 h. [^18F]LP-F (~14.8 MBq, 40 μL) was also mixed with mouse serum (360 μL) and maintained at 37 °C for 4 h. Such PBS solution was subjected to stability analysis using radio-HPLC at 0, 1, 2 and 4 h. A 30 μL sample from the above mouse serum after protein precipitation with 30 μL acetonitrile was also subjected to stability analysis at 0, 1, 2 and 4 h.

The test system of series [4] is A375-hPD-L1 cells. In words: Cell uptake of the tracer, PD-L1+ cells. The series is classed as cell-based, human. The settings on record: for cell uptake after blockade by LP-F: PD-L1+ cells blocked with 25 μM LP-F; for cell uptake: PD-L1+ cells. As to the method: as §1
(§4) A375 cells and A375-hPD-L1 cells (1 × 10^6) were added to each tube, separately. [^18F]LP-F (37 kBq/tube) diluted in DMEM was added and incubated at 37 °C for different periods (30, 60, 120, and 240 min). PD-L1^+ cells were incubated with 100 μL 25 μM LP-F for 30 min ahead to block PD-L1^+ cells and then incubated with [^18F]LP-F (37 kBq/tube) at same conditions. After incubation and wash, the cells’ radioactivity was measured.

Series [5] is described as follows: Micro-PET imaging, non-target tissues (muscle, bone). The class given is in vivo, mice. The following applies: up to 60 min. From the text:
(§5) Female BALB/c nude mice at age of 5~7 weeks were inoculated subcutaneously with 1 × 10^6 A375-hPD-L1 cells in saline at the left flank and 1 × 10^6 A375 cells at the right flank in the same mouse in order to eliminate individual differences. Animal study can be performed in accordance with the principles laid out by the ethical committee of Jiangsu Institute of Nuclear Medicine.
(§6) A375 (right)/A375-hPD-L1 (left) bilateral tumor-bearing mice (n = 3) were anesthetized and then intravenously injected with [^18F] LP-F (~7.4 MBq) dissolved in saline (200 μL). Dynamic scanning was performed for one hour. ASIPro software (Siemens) was applied to process the PET images. Dynamic images were reconstructed in OSEM3D/MAP algorithm and split into twelve frames. Quantification and analysis of region of interest (ROI) in tumors and organs were carried out.

The test system of series [6] is A375 cells. In words: Cell uptake of the tracer, PD-L1- cells. The settings on record: 4 h. The class given is cell-based, human. As to the method:
as §1, §4

The nature of series [7]: Partition coefficient test (1-octanol/water). The series is classed as physicochemical. As to the method:
Amounts of 0.37 MBq [^18F]LP-F, 1000 μL water and 1000 μL 1-octanol were mixed in a tube. The mixture was thoroughly shaken for 5 min. After centrifugation, 500 μL water was withdrawn from water phase and its radioactivity was measured by a gamma counter. An equal volume of 1-octanol was withdrawn from the organic phase and measured. The partition coefficient (Log P) was calculated based on Eq. Log P = Lg(Concentration of [^18F]LP-F in 1-octanol/Concentration of [^18F]LP-F in water)
Then, 500 μL water and 500 μL 1-octanol were added to the above tube to replenish the water and the organic phase. The two-phase system was shaken again. Water and the organic phase were sampled and measured and Log P was calculated again. Repeat two more times.

For series [8], the system named is A375 tumor. In words: Micro-PET imaging, PD-L1- tumor. The series is classed as in vivo, mice.
Description: as §5, §6

For series [9], the system named is A375-hPD-L1 tumor. Description: Micro-PET imaging, PD-L1+ tumor. The class given is in vivo, mice.
Description: as §5, §6

Series [10] is described as follows: In vitro stability assay in PBS (radio-HPLC). The series is classed as physicochemical. The settings on record: PBS pH 7.4, 37 °C, 4 h. As to the method:
as §3

Series [11] concerns the target T1, PD-L1 (Homo sapiens, UniProt Q9NZQ7).
T1 construct: expressed in transfected cells; host or cells: A375 human melanoma cells transfected with the human PD-L1 gene (A375-hPD-L1)
Description: Saturation binding assay on PD-L1+ cells. The settings on record: PD-L1+ cell, one-site model, read-out: dissociation constant (Kd). As to the method: as §1
PD-L1^+ cells (2 × 10^5) were added to each tube and incubated with the gradient of concentration of [^18F]LP-F dissolved in DMEM (0 to 128 nM) at 37 °C for 1 h. After incubation, the cells were centrifuged and washed by PBS twice and then were measured for radioactivity by a γ counter as total bound value. For the non-specific bound value, PD-L1^+ cells (2 × 10^5) were added to each tube and incubated with LP-F (50 μM) dissolved in DMEM for half an hour in advance and then incubated with above concentrations of [^18F]LP-F. After centrifugation and wash, the radioactivity was detected. The specific binding value is obtained by subtracting non-specific bound value from total bound value. The equilibrium dissociation constant (Kd) was calculated by non-linear fit in a one-site model through specific binding values and concentrations of [^18F]LP-F.

Where “and” joins values, the source holds several entries; their conditions need not be identical. Equal values may be shown once. Read-outs that look alike come from different tables or passages of the source. Where only a bound is given, the exact number is not on record here.

T1 sequence (Q9NZQ7 19-290): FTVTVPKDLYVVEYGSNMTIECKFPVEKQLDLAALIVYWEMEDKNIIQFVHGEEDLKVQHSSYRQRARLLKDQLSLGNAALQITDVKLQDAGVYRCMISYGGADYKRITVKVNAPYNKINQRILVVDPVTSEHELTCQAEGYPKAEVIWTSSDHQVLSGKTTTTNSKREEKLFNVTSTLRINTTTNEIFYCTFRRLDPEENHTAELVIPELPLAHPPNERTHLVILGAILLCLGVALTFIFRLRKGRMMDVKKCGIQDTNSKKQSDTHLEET

For the compound `Cc1c(COc2cc(OCc3cccc(C#N)c3)c(CN3CCN(CCOCCOCCOCCF)CC3)cc2Cl)cccc1-c1ccc2c(c1)OCCO2` [LP-F], the viability at 24 h in series [1] and in series [2] was over 90% each time.

As to `Cc1c(COc2cc(OCc3cccc(C#N)c3)c(CN3CCN(CCOCCOCCOCC[18F])CC3)cc2Cl)cccc1-c1ccc2c(c1)OCCO2` [[^18F]LP-F], in series [3], the “stability in mouse serum” value is listed as “high stability”. Further, the figures for the “cell uptake after blockade by LP-F” value in series [4] (0.5 h) and in series [4] (4 h) were 1.42 ± 0.03 %AD and 1.72 ± 0.02 %AD, respectively. The cell uptake was 3.66 ± 0.20 %AD in series [4] (30 min) and 3.64 ± 0.19 %AD in series [4] (4 h). The “activity on the bone (defluorination, in vivo stability)” value in [5] was “no obvious activity on the bone”. The compound further yielded a maximum cell uptake in [6] of 1.41 ± 0.09 %AD. Further, the logP was 2.18 ± 0.16 in [7] (mean ± SD, read-out: partition coefficient (Log P)) and 2.37 in series [7] (trials 1-3, read-out: Log P (single trial)). Moreover, the “Log P (single trial)” value in [7] (trials 1-3) was 2.08 and 2.10. In addition, the “tumor-to-muscle ratio (T/M)” value in series [8] (10 min) is recorded as 0.82 ± 0.24; in series [8] (50 min), 0.75 ± 0.19; in [8] (all the time), “below 1”; in series [9] (PD-L1+ tumor, 30 min post injection), 2.08 ± 0.38; in series [9] (PD-L1+ tumor, 50 min), 2.20 ± 0.29. Besides, the maximum tumor uptake in [8] (60 min) stood at 1.23 ± 0.39 %ID/mL; in [9] (PD-L1+ tumor, 50 min), 3.53 ± 0.46 %ID/mL. Moreover, the “ratio of PD-L1+ tumor uptake to PD-L1- tumor uptake” value in series [9] (50 min) was determined as 2.95 ± 0.39 times. For the same compound, the “stability in PBS” value in [10] is listed as “high stability”. In addition, in series [11], the equilibrium dissociation constant (Kd) is 226 nM.
